Entries after “also recorded” stand apart in the source; their conditions may differ.
How the values were obtained:
[1] = 25° C.; cited from earlier work
[2] = system: 2PN (two pronuclei) mouse embryos; assay: Mouse embryo development after incubation in fluorinated compounds; format: cell-based; conditions: for # embryos showing degeneration / Mean T2 to T3 (mean time from 2-cell stage to 3-cell stage) / Pace of embryo development compared to untreated control embryos / Mean T2 (mean time taken to reach the 2-cell stage): incubated 3 minutes in compound; for # embryos showing degeneration / Pace of embryo development compared to untreated control embryos: cultured 5 days; for Mean T2 (mean time taken to reach the 2-cell stage): embryos that reached 2-cell stage; for # 2-cell stage / # 3-cell stage / # expanded blastocyst / # hatching/hatched blastocyst: number of embryos; for # 2-cell stage / # 3-cell stage / # expanded blastocyst / # hatching/hatched blastocyst / # 2-cell stage (%) / # 3-cell stage (%) / # expanded blastocyst (%) / # hatching/hatched blastocyst (%): incubated 3 minutes, within 5-day incubation; for # 2-cell stage (%) / # 3-cell stage (%) / # expanded blastocyst (%) / # hatching/hatched blastocyst (%): proportion of 2PN embryos
Description: The effects of incubation in different fluorinated compounds on embryo development were tested.
223 2PN (two pronuclei) mouse embryos were randomly divided into four groups: A) raw perfluoro-n-octane; B) a commercially available perfluorohydrocarbon mixture previously used as operating liquid for Piezo-ICSI; C) purified perfluoro-n-octane; and D) untreated control.
Embryos in groups A, B and C were incubated for 3 minutes in the respective compound then transferred to culture medium. Embryos in all groups were then cultured for 5 days in an incubator (37.5° C., relative 100% humidity, 5% CO2 in air).
The number of embryos in each group showing signs of degeneration was counted.
The number of embryos in each group reaching the 2-cell, 3-cell, expanded blastocyst and hatching/hatched blastocyst stages of development within the 5-day incubation was counted.
The mean time taken to reach the 2-cell stage (T2) by those embryos that did, and the mean time taken for those embryos to develop from the 2-cell stage to the 3-cell stage (T3) were measured.

oocytes = assay: Assisted reproduction using Piezo-ICSI with purified perfluoro-n-octane operating liquid compared to c-ICSI; format: in vivo, human; conditions: Piezo-ICSI with purified perfluoro-n-octane as operating liquid
Text: The efficacy of assisted reproduction using c-ICSI was compared to using Piezo-ICSI was compared. Purified perfluoro-n-octane was used as operating liquid for Piezo-ICSI.
In particular, 69 patients having at least 6 mature oocytes were randomly divided into two groups. The first group underwent assisted reproduction in which sperm was introduced into oocytes using c-ICSI. The second group underwent assisted reproduction in which sperm was introduced into oocytes using Piezo-ICSI.
c-ICSI was performed using Eppendorf 2K control with ICSI micropipettes (TPC, Cooper Surgical). Piezo-ICSI was performed using PMM and Piezo micropipettes (Primetech). Purified perfluoro-n-octane was used as operating liquid in Piezo-ICSI.

| SMILES | Surface tension [1] | Vapour pressure [1] | # embryos showing degeneration [2] | Additional embryos for vitrification on average compared to c-ICSI (oocytes) | Average number of embryos for vitrification (oocytes; c-ICSI 2.7) | Oocyte degeneration rate (oocytes; c-ICSI 10.2%) | Utilisation rate (oocytes; c-ICSI 45.6%) | Clinical pregnancy rate (oocytes; c-ICSI 50%) | Fertilization rate (oocytes successfully fertilised) (oocytes; c-ICSI 65.9%, p<0.05) | Mean T2 to T3 (mean time from 2-cell stage to 3-cell stage) [2] | Pace of embryo development compared to untreated control embryos [2] | Mean T2 (mean time taken to reach the 2-cell stage) [2] | # 2-cell stage [2] | # 3-cell stage [2] | # expanded blastocyst [2] | # hatching/hatched blastocyst [2] | # 2-cell stage (%) [2] | # 3-cell stage (%) [2] | # expanded blastocyst (%) [2] | # hatching/hatched blastocyst (%) [2] |
| --- | --- | --- | --- | --- | --- | --- | --- | --- | --- | --- | --- | --- | --- | --- | --- | --- | --- | --- | --- | --- |
| FC(F)(F)C(F)(F)C(F)(F)C(F)(F)C(F)(F)C(F)(F)C(F)(F)C(F)(F)F [perfluoro-n-octane, 1,1,1,2,2,3,3,4,4,5,5,6,6,7,7,8,8,8-octadecafluorooctane] | 16 mN/m | 3.4 mbar | none | – | – | – | – | – | – | – | – | – | – | – | – | – | – | – | – | – |
| FC(F)(F)C(F)(F)C(F)(F)C(F)(F)C(F)(F)C(F)(F)C(F)(F)C(F)(F)F [purified perfluoro-n-octane, perfluoro-n-octane] | – | – | 0 | 1 | 3.8 | 3.8% | 47.3% | 55% | 80.6% | 1293 min | developed at a pace comparable to untreated control embryos; also recorded: does not negatively affect embryo development | 1304 min | 51 | 48 | 45 | 33 | (93%) | (87%) | 82% | 60% |
| FC(F)(F)C(F)(F)C(F)(F)C(F)(F)C(F)(F)C(F)(F)C(F)(F)C(F)(F)F [raw perfluoro-n-octane, perfluoro-n-octane] | – | – | 0 | – | – | – | – | – | – | 1518 min | developed more slowly than control embryos | 1394 min | 52 | 45 | 36 | 9 | (95%) | (82%) | 65% | 16% |
